These are literature values, as cited in patent publication US20220370316A1, “BIOCIDE PRODUCT OF BROAD, CONTINUOUS AND PROLONGUED EFFECT BASED ON ETHANOL, BENZALKONIUM CHLORIDE AND COPPER NANOPARTICLES” (priority 2021, published 2022).

One data set relates to cutaneous bacteria. To be noted: ethanol at 70% concentration, two minutes, skin kept in contact with the alcohol without drying.
The conditions of data set [1]: after topical application.

With `CCO` [Ethanol, ethanol], the cutaneous bacteria destroyed result in the data set with cutaneous bacteria was “approximately 90%”. Turning to “Alkyl-benzyl-dimethyl ammonium chloride [Benzalkonium chloride]”, the “time range of effectivity” value in data set [1] is not above 12 h.
